Results on one compound are retold here after patent US20070191324A1, “Methods for treatment or prophylaxis of aldosterone-mediated pathogenic effects in a subject using an epoxy-steroidal aldosterone antagonist” (priority 1999, published 2007).

Read-outs that look alike come from different tables or passages of the source.

One series has as its system human subject. The experiment in a line: Blood pressure, plasma renin activity and serum aldosterone as a function of eplerenone dose (FIG. 10-12). The note with it: increasing doses. Format: in vivo. The text has this:
For example, appropriate dosing can be determined by monitoring systolic blood pressure. […] Accordingly, subjects can be treated with doses of one or more epoxy-steroidal compounds according to the present invention by increasing doses of such compounds in a step-wise manner until a minimal levels of systolic blood pressure decrease are achieved while, at the same time, also maintaining serum levels of potassium within the normal range. Similarly, appropriate dosing can also be determined by monitoring diastolic blood pressure. […] Accordingly, subjects can be treated with doses of one or more epoxy-steroidal compounds according to the present invention by increasing doses of such compounds in a step-wise manner until a minimal level of diastolic blood pressure change are achieved while, at the same time, also maintaining serum levels of potassium within the normal range. Appropriate dosing can also be determined by monitoring plasma renin activity. […] Accordingly, subjects can be treated with doses of one or more epoxy-steroidal compounds according to the present invention by increasing doses of such compounds in a step-wise manner until the desired level of plasma renin activity is achieved while, at the same time, maintaining serum levels of potassium within the normal range. Appropriate dosing can also be determined by monitoring serum aldosterone levels. […] Accordingly, subjects can be treated with doses of one or more epoxy-steroidal compounds according to the present invention by increasing doses of such compounds in a step-wise manner until the desired level of serum aldosterone is achieved while, at the same time, also maintaining serum levels of potassium within the normal range.

The nature of series [1]: Single dose pharmacokinetics, Japan and Ex-Japan trials (Example A-11). The series is classed as in vivo, human. Particulars: for Vd/F: male, human, in vivo, oral, single dose, least squares mean, read-out: Vss/F. Here is the method:
A total of 76 European subjects and 38 Japanese subjects participated in the single and multiple dose tolerability and food effect trials. Three of the studies were Ex-Japan studies and included doses ranging from 10 mg to 1000 mg. The other two studies were conducted in Japan and included doses ranging from 50 mg to 600 mg.
The […] trials included (i) a single dose tolerability trial, and (ii) a multiple dose tolerability trial, and (iii) a food effect study.
Both single dose and multiple dose tolerability trials were conducted in Japan utilizing healthy male Japanese subjects. […] Six subjects who received the 100 mg dose also participated in the food effect treatment arm of the single dose tolerability trial.
Combining single dose fasting pharmacokinetic data from all five studies, an analysis of variance with factors for country (Japan, Ex-Japan), study nested within country, and dose were performed on the dose-normalized Cmax and AUC values to assess the effect of country (population). Dose normalization was done to the lowest dose (10 mg for single dose, 100 mg for multiple dose). In the absence of intravenous data, the distribution volume (V/F) and clearance (CL/F) parameters are represented as the apparent values and are normalized to 70 kg of body weight. There were no statistically significant differences between the Japan and Ex-Japan trials in any of the pharmacokinetic parameters analyzed.
No statistically significant differences were noted between the Japan and ex-Japan population for any of the derived parameters evaluated.
Each panel consisted of six subjects who were given eplerenone and two subjects who were given placebo.

Series [2] deals with patients uncontrolled with BB or CCB monotherapy. The experiment in a line: Eplerenone co-administration with CCB or beta-blocker, 8 weeks (Example D-10). The series is classed as in vivo, human. The note with it: for Diastolic Blood Pressure Responder Rates, Percentage of Patients Responding: seDBP <90 mmHg or ≧10 mmHg reduction. Here is the method:
This was a multicenter, double-blind, randomized, placebo-controlled, placebo run-in, parallel-group study. […] The dose was to be increased only once during the study. […] Study assessments at protocol-specified timepoints included BP, heart rate, clinical laboratory analyses, ECG, and concomitant medications. Throughout the study, safety was assessed by routine clinical laboratory analyses, vital signs, physical examinations, 12-lead ECG, and monitoring of adverse events. […] The study was designed to include 60 randomized patients in each group and each cohort.

For series [3], the system named is patients with mild to moderate hypertension. The series is described as follows: Eplerenone/HCTZ dose ranging factorial design study (Example D-2). The series is classed as in vivo, human. Here is the method:
Patients were assessed at weeks 0, 2, 4, and 8. Study assessments at protocol-specified timepoints included blood pressure (BP), heart rate, clinical laboratory analyses, vital signs, physical examinations, 12-lead ECG, and monitoring of adverse events. A total of 614 patients were randomized.

The mark [4] stands for this setting: eplerenone 50-100 mg QD, 8 weeks.
[5] abbreviates: eplerenone 25, 50 or 200 mg daily, HCTZ 12.5 or 25 mg daily, 8 weeks.

Regarding `COC(=O)[C@@H]1CC2=CC(=O)CC[C@]2(C)[C@@]23O[C@@H]2C[C@@]2(C)[C@@H](CC[C@@]24CCC(=O)O4)[C@H]13` [Eplerenone, Pregn-4-ene-7,21-dicarboxylic acid, 9,11-epoxy-17-hydroxy-3-oxo-, γ-lactone, methyl ester, (7α, 11α, 17β)-], the “systolic blood pressure as a function of dose” value in the series with human subject (FIG. 10) was “decreased systolic blood pressure”. In addition, the “diastolic blood pressure as a function of dose” value with human subject (FIG. 11) was “decreased diastolic blood pressure”. Besides, in the series on human subject (FIG. 12), the “plasma renin activity as a function of dose” value was “increased levels of plasma renin activity”. The “serum aldosterone as a function of dose” value with human subject (FIG. 12) is “increased levels of serum aldosterone”. The “clinical lab abnormalities and adverse events” value in series [1] (healthy Japanese male subjects, single doses 50-600 mg) is on record as “no adverse events were reported”. Further, the Vd/F in series [1] (Ex-Japan) came to 80.6 L; in series [1] (Japan) it was 80.1 L. Moreover, the “Diastolic Blood Pressure Responder Rates, Percentage of Patients Responding” value is listed as 48 (69.6%) in series [2] (BB Cohort, Week 2); 53 (76.8%) in series [2] (BB Cohort, Week 4); 56 (81.2%) in series [2] (BB Cohort, Week 6); 52 (75.4%) in series [2] (BB Cohort, Week 8); 40 (60.6%) in series [2] (CCB Cohort, Week 2); 51 (76.1%) in series [2] (CCB Cohort, Week 4). Further, the “Diastolic Blood Pressure Responder Rates, Percentage of Patients Responding” value in series [2] (CCB Cohort, Week 6) was 55 (82.1%); in series [2] (CCB Cohort, Week 8), 48 (71.6%). Moreover, the safety and tolerability result in series [2] (add on anti-hypertensive agent) is “safe and well tolerated”; in series [3] (eight weeks, monotherapy or in combination with HCTZ) it was “safe and well tolerated”. The “responders (seDBP <90 mmHg or ≧10 mmHg reduction from Baseline), CCB cohort” value in series [2] (each timepoint, vs placebo) is reported as “more patients who received eplerenone responded to treatment”. Besides, the “responders (seDBP <90 mmHg or ≧10 mmHg reduction from Baseline), BB cohort” value in series [2] (each timepoint, vs placebo (p ≦0.011)) is given as “significantly greater proportions of patients who received eplerenone responded to treatment”. Moreover, in series [2] (setting [4]), the “DBP and SBP, addition to a BB” value is “efficacious in reducing DBP and SBP”. Further, the “SBP, addition to a CCB” value in series [2] (setting [4]) is listed as “efficacious in reducing SBP”. For the same compound, in series [3] (eight weeks), the gynecomastia result was “Gynecomastia was not observed”. The “DBP, change from Baseline to the Final Visit” value in series [3] (setting [5]) is reported as “dose-dependent decreases in DBP”. Further, the “SBP, change from Baseline to the Final Visit” value in series [3] (setting [5]) is “dose-dependent decreases in SBP”.
